# Entries after “also recorded” stand apart in the source; their conditions may differ.
# Tests used:
# [1] = tested on: osteocalcin (Ocn), osteopontin (Opn), Bmal1 expression; assay: Real time RT-PCR of osteogenic and clock genes in BMSC (MSC); assay type: cell-based, mouse
# From the text: FIGS. 7A-7B show the effect of Reserpine on bone marrow stromal cells osteogenic differentiation. […] Bars: Tukey analysis with p<0.05. […] The expression values were normalized with day 0 RNA.
# FIGS. 11A-11D(b) show results of in vitro biological assays of Npas2 suppressing compound Dwn1 (Reserpine).
# Reserpine was selected and its effect on bone marrow stromal cells (BMSC) was characterized for osteogenic differentiation.
# The small molecule compound that scored the best combined z score in Example 2, Dwn1 (Reserpine) was selected for in vitro biological assays. […] BMP-2 has been used as a gold standard for accelerated osteogenic differentiation of MSC (48, 49). […] The expression of core clock gene Bmal1 was not affected by Dwn1 (FIG. 11C). Dwn1 increased in vitro mineralization of Npas2+/− MSC, but not of Npas2−/− MSC (FIG. 11D), implying that the effect of Dwn1 (Reserpine) was facilitated primarily by Npas2 suppression.
# fibroblasts = assay: In vitro wound healing: scratch fibroblast migration and collagen gel contraction; assay type: cell-based, mouse; settings: listed as Dwn1
# Method: The in vitro wound healing ability of Dwn1 was tested using a previously described method.
# Fibroblasts were seeded into a 6-well plate and were synchronized as above. After 2 hr, scratch lines were created with a 20 μL plastic pipette and were washed with medium (n=5 per group). These scratched areas were captured by time-lapse photomicrography every hour from 0 to 24 hr. The number of migrated cells into the scratched area was counted at 12 and 24 hr and compared by one-way ANOVA with post hoc Holm test.
# The floating collagen gel contraction assay was performed following the previously established protocol with some modifications (Ngo et al., 2006). A 500 μL aliquot of collagen gel mixture (Collagen Type I, Corning, Manassas, Va.) containing fibroblasts (50,000 cells) was applied to a 24-well plate (n=5 in each group) and placed at room temperature for 20 min. The solidified gels were transferred to a 100 mm diameter dish and cultured (37_C, 5% CO2 in a humidified incubator). The gel images were scanned by a scanner at 0, 6, 12, 24, 48, and 72 hr. The collagen gel area at each time point was measured (NIH ImageJ ver.1.51) and compared by two-way ANOVA, followed by the Tukey test at each time point.
# As described herein, a small molecule inhibitor of Neuronal PAS domain 2 (Npas2), Dwn1, improves wound healing and minimizes scarring.
compound,measurement,setting,value
COC(=O)[C@H]1[C@H]2C[C@@H]3c4[nH]c5cc(OC)ccc5c4CCN3C[C@H]2C[C@@H](OC(=O)c2cc(OC)c(OC)c(OC)c2)[C@@H]1OC [Reserpine],Expression of core clock gene Bmal1,"[1]; MSC, listed as Dwn1",did not affect; also recorded: not affected
same,Expression of osteocalcin (Ocn),[1]; day 21,significantly increased
same,Expression of osteopontin (Opn),[1]; day 21,mildly affected
same,Expression of osteocalcin (Ocn),"[1]; day 21, listed as Dwn1",increased as early as D21; also recorded: accelerated expression
same,Collagen gel contraction,fibroblasts,accelerates
same,Fibroblast migration in scratch wound healing assay,fibroblasts,accelerates
